These results are taken from publication PMC4514850, “A Novel TGR5 Activator WB403 Promotes GLP-1 Secretion and Preserves Pancreatic β-Cells in Type 2 Diabetic Mice” (PLoS ONE, 2015).

“Also recorded” adds a separate entry of the source.

The subject of one data set is HFD/STZ mice. In words: oral glucose tolerance test in HFD/STZ mice. Type of data set: in vivo. Conditions: 2 g/kg glucose, oral 50, 100 mg/kg 30 min before load. As to the method:
For generation of nongenetic mice model of type 2 diabetes, ICR mice were fed with high fat diet (HFD, with 60% fat, Research Diets) for three weeks, then fasted for 5 h before receiving a single dose of streptozotocin (STZ, Sigma) intraperitoneally (ip) at 80 mg/kg to induce partial insulin deficiency. […] Diabetes was assessed using conventional criteria. Mice with similar degree of hyperglycemia and body weight were randomized into various groups in order to get a similar average PBG in each group.
Mice were fasted overnight (14 h) before glucose tolerance tests. Normal mice received a 4 g/kg glucose challenge and for diabetic mice it’s 2 g/kg. WB403 at 50, 100 mg/kg, or sitagliptin at 100 mg/kg were administrated orally 30 min prior to glucose load (n = 10). For vehicle group, 0.5% CMC was administrated. Blood glucose levels were measured from tail bleeds with a glucometer (Roche, Accu-Chek Performa) at specified time points. Animals were treated and assessed in the order of the vehicle, WB403 50, 100 mg/kg and sitagliptin 100 mg/kg group.
Fig 2 Effects of WB403 on glucose tolerance during OGTT in normal and diabetic mice. OGTT time course and AUC in normal mice (A, B), HFD/STZ mice (C, D) and db/db mice (E, F). Values represent mean ± SD (n = 10). *p<0.05, **p<0.01, ***p<0.001 vs. vehicle group. Asterisks in A, C and E reflect significance between WB403 100 mg/kg and vehicle group.

A further data set concerns the target T1, hTGR5 (Homo sapiens, UniProt Q8TDU6).
T1 construct: expressed in transfected cells; host or cells: 293T cells, transient transfection with pTGR5 (gift from Prof. Johan Auwerx)
T1 sequence (Q8TDU6 1-330): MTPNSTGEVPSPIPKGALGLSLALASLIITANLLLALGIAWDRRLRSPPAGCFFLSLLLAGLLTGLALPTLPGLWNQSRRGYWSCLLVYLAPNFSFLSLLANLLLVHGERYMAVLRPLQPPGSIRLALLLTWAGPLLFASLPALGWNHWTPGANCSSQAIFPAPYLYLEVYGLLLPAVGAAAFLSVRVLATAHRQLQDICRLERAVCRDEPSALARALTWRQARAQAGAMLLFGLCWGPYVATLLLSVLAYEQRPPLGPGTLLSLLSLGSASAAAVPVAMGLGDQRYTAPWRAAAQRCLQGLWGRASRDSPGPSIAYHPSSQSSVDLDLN
In words: human TGR5 CRE-luciferase assay in co-transfected 293T cells. Type of data set: cell-based. As to the method: For human TGR5 luciferase (luc) assay, 293T cells were co-transfected with pCRE-luc, pTGR5 (kind gift from Prof. Johan Auwerx, Ecole Polytechnique Fédérale de Lausanne, Lausanne, Switzerland) and pRenilla (Promega, USA). WB403 was added 5 h later. Cells were harvested after 16 h and subjected to luciferase analysis on Lumistar Optima chemiluminescent detector (BMG labtech, Germany). For cAMP testing, 293T cells transiently transfected with pTGR5 or pGPR119 (GeneCopoeia, USA) were washed by FBS-free DMEM, and stimulated with WB403 in FBS-free DMEM containing 3-isobutyl-1-methyl-xanthine (IBMX, Sigma). Cell lysates were collected 30 min later and used for cAMP ELISA assay. FLIPR Calcium 5 assay kit (Molecular Devices, USA) was used for calcium mobilization assay. 293-GPR40 stable cells (kindly provided by Prof. Naiming Zhou of Zhejiang University, Hanzhou, China) or 293 cells transient transfected with GPR120 were seeded at 50,000 cells per well in black-walled clear-bottomed 96-well plates (Costar). An equal volume of loading buffer containing Fluo 4-AM was added the following day and cells were incubated for 1 h before stimulated with compounds. Increase of the intracellular Ca^2+ concentration was monitored by Flexstation 3 system (Molecular Devices, USA).
Fig 1 WB403 activated TGR5 and promoted active GLP-1 secretion. (A) WB403 stimulated hTGR5 in CRE-luciferase report system at the concentration range of 1–20 μmol/l. (B) WB403 stimulated hTGR5 specific cAMP accumulation at the concentration range of 1–50 μmol/l. n = 3. **p<0.01, ***p<0.001 vs. DMSO (+TGR5) group. (C) The hTGR5 targeted CRE-luciferase activity of WB403 and ZY403. […] (D) Effect of WB403 and ZY403 on gallbladders of mice. Normal mice were fasted overnight and treated with compounds (200 mg/kg) or vehicle (DMSO) by ip injection. Gallbladders (GB) were removed 30 min later and volumes measured then normalized to body weight (B.W.). n = 10. **p<0.01 vs. vehicle group. (E) Structure of WB403 and ZY403. WB403 promoted GLP-1 secretion in NCI-H716 cells (F), primary enterocytes (G), and MIN6 cells (H). n = 3. *p<0.05, **p<0.01, ***p<0.001 vs. vehicle group. (I) WB403 promoted GLP-1 in ICR mice. n = 5. **p<0.01 vs. vehicle group. Values represent mean ± SEM.

The subject of a further data set is normal mice. Put plainly: 4-week treatment of normal mice (hypoglycemia risk). Type of data set: in vivo. Conditions: 100 mg/kg, 4 weeks. Here is the method:
Mice were treated for 4 weeks by WB403 and sitagliptin at 100 mg/kg. Glibenclamide at 2.5 mg/kg was used as positive control for hypoglycemia. FBG (A) and PBG (B) were measured every week. Values are mean ± SD (n = 10). *p<0.05, **p<0.01 vs. vehicle group. (TIF) Click here for additional data file.

The test system of the next data set is NCI-H716 cells. Put plainly: active GLP-1 secretion in NCI-H716 cells. Format: cell-based, human. Conditions: 10 μmol/l, 30 min. Here is the method:
Endocrine differentiation was induced by seeding NCI-H716 cells in plates coated with Matrigel (Becton Dickinson). Cells were washed with RPMI-1640 medium without FBS and incubated in the same medium containing indicated compounds at 10 μmol/l. The condition medium was collected after 30 min. GLP-1 secretion in MIN6 or primary enterocytes was conducted similarly. To isolate primary enterocytes, ileum or colon was cut into 2 cm length, rinsed by PBS (pH7.2∼7.4) before dispersed in 10 mmol/l EDTA/PBS (pH7.4) for 15 min at room temperature, followed by pipetting up and down. Enterocytes were collected by filtration through a 70 μm cell strainer. To study the effect of WB403 on GLP-1 secretion in vivo, mice in group of three were fasted overnight and orally received 0, 50, 100 mg/kg of WB403 dispersed in 0.5% CMC with a DPP-4 inhibitor (5 mg/kg). There were 5 animals in each group. 2 g/kg glucose was administrated 30 min later and blood was collected 10 min after glucose challenge.
The GLP-1 (active) ELISA kit was purchased from Millipore, and insulin ELISA kit was from Mercodia. For quantitative determination of cAMP, a competitive enzyme immunoassay kit from R&D system was used. All immunoassays were performed according to manufacturers’ instructions.

Broadly, the EC50 is the concentration needed to bring the measured effect to its halfway point. Consider `CCc1cc(-c2nc(C)c(COCc3ccc(Br)cc3)s2)ccn1` [WB403, 4-(5-((4-bromobenzyloxy)-methyl)-4-methylthiazol-2-yl)-2-ethylpyridine], for which, in the data set with HFD/STZ mice, the “blood glucose tolerance (OGTT) vs vehicle” value is listed as “The same results”. In addition, at hTGR5 (1–20 μmol/l, Fig 1A), the “stimulation of luciferase reaction through TGR5” value is on record as “dose-dependently stimulate”. Also, at hTGR5 (CRE-luciferase, 293T cells, read-out: TGR5 EC50), the EC50 was found to be 5.5 µM. Also, at hTGR5 (control 293T cells transfected with an empty plasmid), the “luciferase activity in control 293T cells” value is given as “no stimulation”. Also, the “TGR5 luciferase activity in primary screen (fold increase compared to DMSO control)” value at hTGR5 (screen of 100 compounds, S1 Fig) is listed as “relatively lower luciferase activity”. For the same compound, in the data set on normal mice, the “FBG lowering in normal mice” value is “did not cause significant FBG and PBG lowering”; the “PBG lowering in normal mice” value is “did not cause significant FBG and PBG lowering”. In the data set on NCI-H716 cells, the “GLP-1 stimulation in NCI-H716 cells” value was “much higher GLP-1 stimulation capacity; also recorded: outstanding effect in GLP-1 stimulation”.
